Source: US7118895B2, “Process for producing aglycon by using diglycosidase and flavor-improved food containing the aglycon and converting agent to be used in the process” (Amano Enzyme Inc., priority 2000, dated 2006)

Tested on: Crude diglycosidase
Experiment: Examination of pH in the conversion into isoflavone aglycons by diglycosidase using soybean materials
Format: biochemical, Penicillium multicolor IAM7153
Details: for Decomposition efficiency of glycitin family in roasted soy flour / Decomposition efficiency of glycitin family in soymilk: 55° C.
Outline: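 Each soybean material (50 mg) is suspended and set to a pH between 2 and 11. Crude diglycosidase, adjusted to 1.88 AU/mL in enzyme solution of the same pH, is added, and the mixture is incubated at 55° C. Ethanol is added at 0, 1, 3 and 6 h, then supernatants go to HPLC.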

[1] = pH6.6, heat treatment of enzyme: no, reaction time 0 h
[2] = pH6.6, heat treatment of enzyme: no, reaction time 1 h
[3] = pH6.6, heat treatment of enzyme: no, reaction time 3 h
[4] = pH6.6, heat treatment of enzyme: no, reaction time 6 h
[5] = pH6.6, heat treatment of enzyme: yes, reaction time 6 h

COc1cc2c(=O)c(-c3ccc(O)cc3)coc2cc1O[C@@H]1O[C@H](COC(=O)CC(=O)O)[C@@H](O)[C@H](O)[C@H]1O [malonylglycitin, 6″-O-malonylglycitin]
Decomposition efficiency of glycitin family in concentrated soybean protein (pH1.6, heat treatment of enzyme: no, reaction time 0 h): 0.4% | Decomposition efficiency of glycitin family in concentrated soybean protein (pH1.6, heat treatment of enzyme: no, reaction time 1 h): 0.4% | Decomposition efficiency of glycitin family in concentrated soybean protein (pH1.6, heat treatment of enzyme: no, reaction time 3 h): 0.4% | Decomposition efficiency of glycitin family in concentrated soybean protein (pH1.6, heat treatment of enzyme: no, reaction time 6 h): 0.4% | Decomposition efficiency of glycitin family in concentrated soybean protein (pH1.6, heat treatment of enzyme: yes, reaction time 6 h): 0.4% | Decomposition efficiency of glycitin family in roasted soy flour (pH2, heat treatment of enzyme no, reaction time 0 h): not detected | Decomposition efficiency of glycitin family in roasted soy flour (pH2, heat treatment of enzyme no, reaction time 1 h): not detected | Decomposition efficiency of glycitin family in roasted soy flour (pH2, heat treatment of enzyme no, reaction time 3 h): not detected | Decomposition efficiency of glycitin family in roasted soy flour (pH2, heat treatment of enzyme no, reaction time 6 h): not detected | Decomposition efficiency of glycitin family in roasted soy flour (pH2, heat treatment of enzyme yes, reaction time 6 h): not detected | Decomposition efficiency of glycitin family in soymilk (pH2.3, heat treatment of enzyme no, reaction time 0 h): 42.6 | Decomposition efficiency of glycitin family in soymilk (pH2.3, heat treatment of enzyme no, reaction time 1 h): 51.3 | Decomposition efficiency of glycitin family in soymilk (pH2.3, heat treatment of enzyme no, reaction time 3 h): 47.7 | Decomposition efficiency of glycitin family in soymilk (pH2.3, heat treatment of enzyme no, reaction time 6 h): 46.5 | Decomposition efficiency of glycitin family in soymilk (pH2.3, heat treatment of enzyme yes, reaction time 6 h): 41.3 | Decomposition efficiency of glycitin family in defatted soybean (pH2.6, heat treatment of enzyme: no, reaction time 0 h): 100.0% | Decomposition efficiency of glycitin family in defatted soybean (pH2.6, heat treatment of enzyme: no, reaction time 1 h): 100.0% | Decomposition efficiency of glycitin family in defatted soybean (pH2.6, heat treatment of enzyme: no, reaction time 3 h): 100.0% | Decomposition efficiency of glycitin family in defatted soybean (pH2.6, heat treatment of enzyme: no, reaction time 6 h): 100.0% | Decomposition efficiency of glycitin family in defatted soybean (pH2.6, heat treatment of enzyme: yes, reaction time 6 h): 100.0% | Decomposition efficiency of glycitin family in concentrated soybean protein (pH2.7, heat treatment of enzyme: no, reaction time 0 h): 0.4% | Decomposition efficiency of glycitin family in concentrated soybean protein (pH2.7, heat treatment of enzyme: no, reaction time 1 h): 0.5% | Decomposition efficiency of glycitin family in concentrated soybean protein (pH2.7, heat treatment of enzyme: no, reaction time 3 h): 0.5% | Decomposition efficiency of glycitin family in concentrated soybean protein (pH2.7, heat treatment of enzyme: no, reaction time 6 h): 0.5% | Decomposition efficiency of glycitin family in concentrated soybean protein (pH2.7, heat treatment of enzyme: yes, reaction time 6 h): 0.4% | Decomposition efficiency of glycitin family in roasted soy flour (pH3, heat treatment of enzyme no, reaction time 0 h): not detected | Decomposition efficiency of glycitin family in roasted soy flour (pH3, heat treatment of enzyme no, reaction time 1 h): not detected | Decomposition efficiency of glycitin family in roasted soy flour (pH3, heat treatment of enzyme no, reaction time 3 h): not detected | Decomposition efficiency of glycitin family in roasted soy flour (pH3, heat treatment of enzyme no, reaction time 6 h): not detected | Decomposition efficiency of glycitin family in roasted soy flour (pH3, heat treatment of enzyme yes, reaction time 6 h): not detected | Decomposition efficiency of glycitin family in defatted soybean (pH3.4, heat treatment of enzyme: no, reaction time 0 h): 100.0% | Decomposition efficiency of glycitin family in defatted soybean (pH3.4, heat treatment of enzyme: no, reaction time 1 h): 100.0% | Decomposition efficiency of glycitin family in defatted soybean (pH3.4, heat treatment of enzyme: no, reaction time 3 h): 100.0% | Decomposition efficiency of glycitin family in defatted soybean (pH3.4, heat treatment of enzyme: no, reaction time 6 h): 100.0% | Decomposition efficiency of glycitin family in defatted soybean (pH3.4, heat treatment of enzyme: yes, reaction time 6 h): 100.0% | Decomposition efficiency of glycitin family in soymilk (pH3.5, heat treatment of enzyme no, reaction time 0 h): 42.6 | Decomposition efficiency of glycitin family in soymilk (pH3.5, heat treatment of enzyme no, reaction time 1 h): 21.9 | Decomposition efficiency of glycitin family in soymilk (pH3.5, heat treatment of enzyme no, reaction time 3 h): not detected | Decomposition efficiency of glycitin family in soymilk (pH3.5, heat treatment of enzyme no, reaction time 6 h): not detected | Decomposition efficiency of glycitin family in soymilk (pH3.5, heat treatment of enzyme yes, reaction time 6 h): 38.2 | Decomposition efficiency of glycitin family in concentrated soybean protein (pH3.7, heat treatment of enzyme: no, reaction time 0 h): 0.4% | Decomposition efficiency of glycitin family in concentrated soybean protein (pH3.7, heat treatment of enzyme: no, reaction time 1 h): 0.5% | Decomposition efficiency of glycitin family in concentrated soybean protein (pH3.7, heat treatment of enzyme: no, reaction time 3 h): 0.4% | Decomposition efficiency of glycitin family in concentrated soybean protein (pH3.7, heat treatment of enzyme: no, reaction time 6 h): 0.4% | Decomposition efficiency of glycitin family in concentrated soybean protein (pH3.7, heat treatment of enzyme: yes, reaction time 6 h): 0.4% | Decomposition efficiency of glycitin family in roasted soy flour (pH4, heat treatment of enzyme no, reaction time 0 h): not detected | Decomposition efficiency of glycitin family in roasted soy flour (pH4, heat treatment of enzyme no, reaction time 1 h): not detected | Decomposition efficiency of glycitin family in roasted soy flour (pH4, heat treatment of enzyme no, reaction time 3 h): not detected | Decomposition efficiency of glycitin family in roasted soy flour (pH4, heat treatment of enzyme no, reaction time 6 h): not detected | Decomposition efficiency of glycitin family in roasted soy flour (pH4, heat treatment of enzyme yes, reaction time 6 h): not detected | Decomposition efficiency of glycitin family in soymilk (pH4.8, heat treatment of enzyme no, reaction time 0 h): 43.2 | Decomposition efficiency of glycitin family in soymilk (pH4.8, heat treatment of enzyme no, reaction time 1 h): 37.0 | Decomposition efficiency of glycitin family in soymilk (pH4.8, heat treatment of enzyme no, reaction time 3 h): 21.1 | Decomposition efficiency of glycitin family in soymilk (pH4.8, heat treatment of enzyme no, reaction time 6 h): 8.3 | Decomposition efficiency of glycitin family in soymilk (pH4.8, heat treatment of enzyme yes, reaction time 6 h): 39.2 | Decomposition efficiency of glycitin family in defatted soybean (pH4.8, heat treatment of enzyme: no, reaction time 0 h): 64.0% | Decomposition efficiency of glycitin family in defatted soybean (pH4.8, heat treatment of enzyme: no, reaction time 1 h): 40.1% | Decomposition efficiency of glycitin family in defatted soybean (pH4.8, heat treatment of enzyme: no, reaction time 3 h): 37.5% | Decomposition efficiency of glycitin family in defatted soybean (pH4.8, heat treatment of enzyme: no, reaction time 6 h): 31.9% | Decomposition efficiency of glycitin family in defatted soybean (pH4.8, heat treatment of enzyme: yes, reaction time 6 h): 56.2% | Decomposition efficiency of glycitin family in roasted soy flour (pH5, heat treatment of enzyme no, reaction time 0 h): not detected | Decomposition efficiency of glycitin family in roasted soy flour (pH5, heat treatment of enzyme no, reaction time 1 h): not detected | Decomposition efficiency of glycitin family in roasted soy flour (pH5, heat treatment of enzyme no, reaction time 3 h): not detected | Decomposition efficiency of glycitin family in roasted soy flour (pH5, heat treatment of enzyme no, reaction time 6 h): not detected | Decomposition efficiency of glycitin family in roasted soy flour (pH5, heat treatment of enzyme yes, reaction time 6 h): not detected | Decomposition efficiency of glycitin family in concentrated soybean protein (pH5.1, heat treatment of enzyme: no, reaction time 0 h): 0.4% | Decomposition efficiency of glycitin family in concentrated soybean protein (pH5.1, heat treatment of enzyme: no, reaction time 1 h): 0.6% | Decomposition efficiency of glycitin family in concentrated soybean protein (pH5.1, heat treatment of enzyme: no, reaction time 3 h): 0.6% | Decomposition efficiency of glycitin family in concentrated soybean protein (pH5.1, heat treatment of enzyme: no, reaction time 6 h): 0.6% | Decomposition efficiency of glycitin family in concentrated soybean protein (pH5.1, heat treatment of enzyme: yes, reaction time 6 h): 0.4% | Decomposition efficiency of glycitin family in defatted soybean (pH5.4, heat treatment of enzyme: no, reaction time 0 h): 64.0% | Decomposition efficiency of glycitin family in defatted soybean (pH5.4, heat treatment of enzyme: no, reaction time 1 h): 45.1% | Decomposition efficiency of glycitin family in defatted soybean (pH5.4, heat treatment of enzyme: no, reaction time 3 h): 100.0% | Decomposition efficiency of glycitin family in defatted soybean (pH5.4, heat treatment of enzyme: no, reaction time 6 h): 32.3% | Decomposition efficiency of glycitin family in defatted soybean (pH5.4, heat treatment of enzyme: yes, reaction time 6 h): 39.3% | Decomposition efficiency of glycitin family in soymilk (pH6.2, heat treatment of enzyme no, reaction time 0 h): 43.2 | Decomposition efficiency of glycitin family in soymilk (pH6.2, heat treatment of enzyme no, reaction time 1 h): 46.4 | Decomposition efficiency of glycitin family in soymilk (pH6.2, heat treatment of enzyme no, reaction time 3 h): 34.5 | Decomposition efficiency of glycitin family in soymilk (pH6.2, heat treatment of enzyme no, reaction time 6 h): 29.6 | Decomposition efficiency of glycitin family in soymilk (pH6.2, heat treatment of enzyme yes, reaction time 6 h): 37.6 | Decomposition efficiency of glycitin family in roasted soy flour (pH6.5, heat treatment of enzyme no, reaction time 0 h): not detected | Decomposition efficiency of glycitin family in roasted soy flour (pH6.5, heat treatment of enzyme no, reaction time 1 h): not detected | Decomposition efficiency of glycitin family in roasted soy flour (pH6.5, heat treatment of enzyme no, reaction time 3 h): not detected | Decomposition efficiency of glycitin family in roasted soy flour (pH6.5, heat treatment of enzyme no, reaction time 6 h): not detected | Decomposition efficiency of glycitin family in roasted soy flour (pH6.5, heat treatment of enzyme yes, reaction time 6 h): not detected | Decomposition efficiency of glycitin family in concentrated soybean protein [1]: 0.4% | Decomposition efficiency of glycitin family in defatted soybean [1]: 39.6% | Decomposition efficiency of glycitin family in concentrated soybean protein [2]: 0.4% | Decomposition efficiency of glycitin family in defatted soybean [2]: 52.9% | Decomposition efficiency of glycitin family in concentrated soybean protein [3]: 0.4% | Decomposition efficiency of glycitin family in defatted soybean [3]: 53.6% | Decomposition efficiency of glycitin family in concentrated soybean protein [4]: 0.4% | Decomposition efficiency of glycitin family in defatted soybean [4]: 58.1% | Decomposition efficiency of glycitin family in concentrated soybean protein [5]: 0.4% | Decomposition efficiency of glycitin family in defatted soybean [5]: 50.3% | Decomposition efficiency of glycitin family in soymilk (pH7.2, heat treatment of enzyme no, reaction time 0 h): 43.9 | Decomposition efficiency of glycitin family in soymilk (pH7.2, heat treatment of enzyme no, reaction time 1 h): 48.8 | Decomposition efficiency of glycitin family in soymilk (pH7.2, heat treatment of enzyme no, reaction time 3 h): 46.2 | Decomposition efficiency of glycitin family in soymilk (pH7.2, heat treatment of enzyme no, reaction time 6 h): 41.6 | Decomposition efficiency of glycitin family in soymilk (pH7.2, heat treatment of enzyme yes, reaction time 6 h): 37.5 | Decomposition efficiency of glycitin family in defatted soybean (pH7.8, heat treatment of enzyme: no, reaction time 0 h): 66.8% | Decomposition efficiency of glycitin family in defatted soybean (pH7.8, heat treatment of enzyme: no, reaction time 1 h): 57.5% | Decomposition efficiency of glycitin family in defatted soybean (pH7.8, heat treatment of enzyme: no, reaction time 3 h): 53.2% | Decomposition efficiency of glycitin family in defatted soybean (pH7.8, heat treatment of enzyme: no, reaction time 6 h): 49.1% | Decomposition efficiency of glycitin family in defatted soybean (pH7.8, heat treatment of enzyme: yes, reaction time 6 h): 55.8% | Decomposition efficiency of glycitin family in roasted soy flour (pH8.5, heat treatment of enzyme no, reaction time 0 h): not detected | Decomposition efficiency of glycitin family in roasted soy flour (pH8.5, heat treatment of enzyme no, reaction time 1 h): not detected | Decomposition efficiency of glycitin family in roasted soy flour (pH8.5, heat treatment of enzyme no, reaction time 3 h): not detected | Decomposition efficiency of glycitin family in roasted soy flour (pH8.5, heat treatment of enzyme no, reaction time 6 h): not detected | Decomposition efficiency of glycitin family in roasted soy flour (pH8.5, heat treatment of enzyme yes, reaction time 6 h): not detected | Decomposition efficiency of glycitin family in concentrated soybean protein (pH8.6, heat treatment of enzyme: no, reaction time 0 h): 0.4% | Decomposition efficiency of glycitin family in concentrated soybean protein (pH8.6, heat treatment of enzyme: no, reaction time 1 h): 0.4% | Decomposition efficiency of glycitin family in concentrated soybean protein (pH8.6, heat treatment of enzyme: no, reaction time 3 h): 0.4% | Decomposition efficiency of glycitin family in concentrated soybean protein (pH8.6, heat treatment of enzyme: no, reaction time 6 h): 0.4% | Decomposition efficiency of glycitin family in concentrated soybean protein (pH8.6, heat treatment of enzyme: yes, reaction time 6 h): 0.3% | Decomposition efficiency of glycitin family in soymilk (pH11.6, heat treatment of enzyme no, reaction time 0 h): 39.4 | Decomposition efficiency of glycitin family in soymilk (pH11.6, heat treatment of enzyme no, reaction time 1 h): 50.4 | Decomposition efficiency of glycitin family in soymilk (pH11.6, heat treatment of enzyme no, reaction time 3 h): 46.5 | Decomposition efficiency of glycitin family in soymilk (pH11.6, heat treatment of enzyme no, reaction time 6 h): 44.0 | Decomposition efficiency of glycitin family in soymilk (pH11.6, heat treatment of enzyme yes, reaction time 6 h): 34.4
